According to the supplement of paper PMC8671470:

Tested on: KG-1
Test: cell viability (% survival relative to DMSO control, bortezomib = 0%); higher = less cytotoxic
Conditions: 10000 nM; 72 h
Procedure, shortened: (§1)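 Percent survival is reported as the mean of duplicate wells. Cells from 10 AML and 5 CML lines were plated in 384-well plates containing compounds at 1, 10, 100, 1000 or 10000 nM and kept for 72 h at 37 °C in 5% CO2. Readout used CellTiter-Glo luminescence, scaled so that vehicle equals 100% and a 10 µM positive control equals 0%.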

First: CN(C)c1cc(NC(=O)CNC(C)(C)C)c(O)c2c1C[C@H]1C[C@H]3[C@H](N(C)C)C(=O)C(C(N)=O)C(=O)[C@@]3(O)C(=O)C1C2=O (stereo partly drawn) [Tigecycline]
Second: CC[C@@]1(O)C(=O)OCc2c1cc1n(c2=O)Cc2cc3c(CN(C)C)c(O)ccc3nc2-1 [Topotecan]
The cell viability of the first is higher: 66.5% for the first, 6.8% for the second.

Compared with `COc1ccc2c(C(=S)N(C)CC(=O)O)cccc2c1C(F)(F)F` [Tolrestat], `CCC(=O)N1CCN(c2ccc(-n3c(=O)ccc4cnc5ccc(-c6cnc7ccccc7c6)cc5c43)cc2C(F)(F)F)CC1` [Torin1] is lower in cell viability: 101% for the first, 26% for the second.

Tested on: Mono-Mac-6
Test: as above
Conditions: 1 nM; 72 h
Procedure, shortened: as §1

First: O[C@H]1[C@H]2[C@H](O)CCCN2C[C@H]1O [Swainsonine]
Second: Cc1cn([C@H]2C[C@H](O)[C@@H](COP(=O)(O)OP(=O)(O)O)O2)c(=O)[nH]c1=O [Thymidine diphosphate]
The cell viability of the first is higher: 101% for the first, 95.1% for the second.

Going from `Cc1coc2c1C(=O)C(=O)c1c-2ccc2c1CCCC2(C)C` [Tanshinone IIA] to `CC[C@@]1(O)C(=O)OCc2c1cc1n(c2=O)Cc2cc3c(CN(C)C)c(O)ccc3nc2-1` [Topotecan], the cell viability falls from 90.9% to 87.3%.

First: CN(C)c1cc(NC(=O)CNC(C)(C)C)c(O)c2c1C[C@H]1C[C@H]3[C@H](N(C)C)C(=O)C(C(N)=O)C(=O)[C@@]3(O)C(=O)C1C2=O (stereo partly drawn) [Tigecycline]
Second: COc1ccc2c(C(=S)N(C)CC(=O)O)cccc2c1C(F)(F)F [Tolrestat]
The cell viability of the first is higher: 112% for the first, 86.5% for the second.

For `CCC(=O)N1CCN(c2ccc(-n3c(=O)ccc4cnc5ccc(-c6cnc7ccccc7c6)cc5c43)cc2C(F)(F)F)CC1` [Torin1], the cell viability was 92.2%.

Same assay, conditions: 10 nM; 72 h

First: O[C@H]1[C@H]2[C@H](O)CCCN2C[C@H]1O [Swainsonine]
Second: Cc1cn([C@H]2C[C@H](O)[C@@H](COP(=O)(O)OP(=O)(O)O)O2)c(=O)[nH]c1=O [Thymidine diphosphate]
The cell viability of the first is higher: 106% for the first, 88.1% for the second.

Compared with `Cc1coc2c1C(=O)C(=O)c1c-2ccc2c1CCCC2(C)C` [Tanshinone IIA], `CC[C@@]1(O)C(=O)OCc2c1cc1n(c2=O)Cc2cc3c(CN(C)C)c(O)ccc3nc2-1` [Topotecan] is lower in cell viability: 99% for the first, 98% for the second.

First: CN(C)c1cc(NC(=O)CNC(C)(C)C)c(O)c2c1C[C@H]1C[C@H]3[C@H](N(C)C)C(=O)C(C(N)=O)C(=O)[C@@]3(O)C(=O)C1C2=O (stereo partly drawn) [Tigecycline]
Second: COc1ccc2c(C(=S)N(C)CC(=O)O)cccc2c1C(F)(F)F [Tolrestat]
The cell viability of the first is lower: 108% for the first, 113% for the second.

`CCC(=O)N1CCN(c2ccc(-n3c(=O)ccc4cnc5ccc(-c6cnc7ccccc7c6)cc5c43)cc2C(F)(F)F)CC1` [Torin1] gave a cell viability of 85.5%.

Same assay, conditions: 100 nM; 72 h

First: O[C@H]1[C@H]2[C@H](O)CCCN2C[C@H]1O [Swainsonine]
Second: Cc1cn([C@H]2C[C@H](O)[C@@H](COP(=O)(O)OP(=O)(O)O)O2)c(=O)[nH]c1=O [Thymidine diphosphate]
The cell viability of the first is higher: 106% for the first, 105% for the second.

Going from `Cc1coc2c1C(=O)C(=O)c1c-2ccc2c1CCCC2(C)C` [Tanshinone IIA] to `CC[C@@]1(O)C(=O)OCc2c1cc1n(c2=O)Cc2cc3c(CN(C)C)c(O)ccc3nc2-1` [Topotecan], the cell viability falls from 102% to 2.7%.

Going from `CN(C)c1cc(NC(=O)CNC(C)(C)C)c(O)c2c1C[C@H]1C[C@H]3[C@H](N(C)C)C(=O)C(C(N)=O)C(=O)[C@@]3(O)C(=O)C1C2=O` (stereo partly drawn) [Tigecycline] to `COc1ccc2c(C(=S)N(C)CC(=O)O)cccc2c1C(F)(F)F` [Tolrestat], the cell viability falls from 100% to 94.1%.

Work on `CCC(=O)N1CCN(c2ccc(-n3c(=O)ccc4cnc5ccc(-c6cnc7ccccc7c6)cc5c43)cc2C(F)(F)F)CC1` [Torin1] yielded a cell viability of 75.8%.

Same assay, conditions: 1000 nM; 72 h

First: O[C@H]1[C@H]2[C@H](O)CCCN2C[C@H]1O [Swainsonine]
Second: Cc1cn([C@H]2C[C@H](O)[C@@H](COP(=O)(O)OP(=O)(O)O)O2)c(=O)[nH]c1=O [Thymidine diphosphate]
The cell viability of the first is lower: 90% for the first, 91.8% for the second.

Compared with `Cc1coc2c1C(=O)C(=O)c1c-2ccc2c1CCCC2(C)C` [Tanshinone IIA], `CC[C@@]1(O)C(=O)OCc2c1cc1n(c2=O)Cc2cc3c(CN(C)C)c(O)ccc3nc2-1` [Topotecan] is lower in cell viability: 91.1% for the first, 0.495% for the second.

Going from `CN(C)c1cc(NC(=O)CNC(C)(C)C)c(O)c2c1C[C@H]1C[C@H]3[C@H](N(C)C)C(=O)C(C(N)=O)C(=O)[C@@]3(O)C(=O)C1C2=O` (stereo partly drawn) [Tigecycline] to `COc1ccc2c(C(=S)N(C)CC(=O)O)cccc2c1C(F)(F)F` [Tolrestat], the cell viability rises from 105% to 113%.

For `CCC(=O)N1CCN(c2ccc(-n3c(=O)ccc4cnc5ccc(-c6cnc7ccccc7c6)cc5c43)cc2C(F)(F)F)CC1` [Torin1], the cell viability was 35.7%.

Same assay, conditions: 10000 nM; 72 h

First: O[C@H]1[C@H]2[C@H](O)CCCN2C[C@H]1O [Swainsonine]
Second: Cc1cn([C@H]2C[C@H](O)[C@@H](COP(=O)(O)OP(=O)(O)O)O2)c(=O)[nH]c1=O [Thymidine diphosphate]
The cell viability of the first is higher: 102% for the first, 92.5% for the second.

Going from `Cc1coc2c1C(=O)C(=O)c1c-2ccc2c1CCCC2(C)C` [Tanshinone IIA] to `CC[C@@]1(O)C(=O)OCc2c1cc1n(c2=O)Cc2cc3c(CN(C)C)c(O)ccc3nc2-1` [Topotecan], the cell viability falls from 87.7% to 0.236%.

Compared with `CN(C)c1cc(NC(=O)CNC(C)(C)C)c(O)c2c1C[C@H]1C[C@H]3[C@H](N(C)C)C(=O)C(C(N)=O)C(=O)[C@@]3(O)C(=O)C1C2=O` (stereo partly drawn) [Tigecycline], `COc1ccc2c(C(=S)N(C)CC(=O)O)cccc2c1C(F)(F)F` [Tolrestat] is higher in cell viability: 93.7% for the first, 95.4% for the second.

With `CCC(=O)N1CCN(c2ccc(-n3c(=O)ccc4cnc5ccc(-c6cnc7ccccc7c6)cc5c43)cc2C(F)(F)F)CC1` [Torin1] the cell viability was 21.7%.

Tested on: MOLM-13
Test: as above
Conditions: 1 nM; 72 h
Procedure, shortened: as §1

Going from `O[C@H]1[C@H]2[C@H](O)CCCN2C[C@H]1O` [Swainsonine] to `Cc1cn([C@H]2C[C@H](O)[C@@H](COP(=O)(O)OP(=O)(O)O)O2)c(=O)[nH]c1=O` [Thymidine diphosphate], the cell viability rises from 97.8% to 108%.

Compared with `Cc1coc2c1C(=O)C(=O)c1c-2ccc2c1CCCC2(C)C` [Tanshinone IIA], `CC[C@@]1(O)C(=O)OCc2c1cc1n(c2=O)Cc2cc3c(CN(C)C)c(O)ccc3nc2-1` [Topotecan] is higher in cell viability: 87.8% for the first, 91.4% for the second.

First: CN(C)c1cc(NC(=O)CNC(C)(C)C)c(O)c2c1C[C@H]1C[C@H]3[C@H](N(C)C)C(=O)C(C(N)=O)C(=O)[C@@]3(O)C(=O)C1C2=O (stereo partly drawn) [Tigecycline]
Second: COc1ccc2c(C(=S)N(C)CC(=O)O)cccc2c1C(F)(F)F [Tolrestat]
The cell viability of the first is higher: 119% for the first, 105% for the second.

`CCC(=O)N1CCN(c2ccc(-n3c(=O)ccc4cnc5ccc(-c6cnc7ccccc7c6)cc5c43)cc2C(F)(F)F)CC1` [Torin1] was tested, and the cell viability was 93%.

Same assay, conditions: 10 nM; 72 h

First: O[C@H]1[C@H]2[C@H](O)CCCN2C[C@H]1O [Swainsonine]
Second: Cc1cn([C@H]2C[C@H](O)[C@@H](COP(=O)(O)OP(=O)(O)O)O2)c(=O)[nH]c1=O [Thymidine diphosphate]
The cell viability of the first is higher: 94.2% for the first, 92.1% for the second.

First: Cc1coc2c1C(=O)C(=O)c1c-2ccc2c1CCCC2(C)C [Tanshinone IIA]
Second: CC[C@@]1(O)C(=O)OCc2c1cc1n(c2=O)Cc2cc3c(CN(C)C)c(O)ccc3nc2-1 [Topotecan]
The cell viability of the first is higher: 90.9% for the first, 70.9% for the second.

First: CN(C)c1cc(NC(=O)CNC(C)(C)C)c(O)c2c1C[C@H]1C[C@H]3[C@H](N(C)C)C(=O)C(C(N)=O)C(=O)[C@@]3(O)C(=O)C1C2=O (stereo partly drawn) [Tigecycline]
Second: COc1ccc2c(C(=S)N(C)CC(=O)O)cccc2c1C(F)(F)F [Tolrestat]
The cell viability of the first is lower: 84% for the first, 149% for the second.

`CCC(=O)N1CCN(c2ccc(-n3c(=O)ccc4cnc5ccc(-c6cnc7ccccc7c6)cc5c43)cc2C(F)(F)F)CC1` [Torin1] gave a cell viability of 77.8%.

Same assay, conditions: 100 nM; 72 h

Going from `O[C@H]1[C@H]2[C@H](O)CCCN2C[C@H]1O` [Swainsonine] to `Cc1cn([C@H]2C[C@H](O)[C@@H](COP(=O)(O)OP(=O)(O)O)O2)c(=O)[nH]c1=O` [Thymidine diphosphate], the cell viability rises from 102% to 110%.

Compared with `Cc1coc2c1C(=O)C(=O)c1c-2ccc2c1CCCC2(C)C` [Tanshinone IIA], `CC[C@@]1(O)C(=O)OCc2c1cc1n(c2=O)Cc2cc3c(CN(C)C)c(O)ccc3nc2-1` [Topotecan] is lower in cell viability: 106% for the first, 0.317% for the second.

Going from `CN(C)c1cc(NC(=O)CNC(C)(C)C)c(O)c2c1C[C@H]1C[C@H]3[C@H](N(C)C)C(=O)C(C(N)=O)C(=O)[C@@]3(O)C(=O)C1C2=O` (stereo partly drawn) [Tigecycline] to `COc1ccc2c(C(=S)N(C)CC(=O)O)cccc2c1C(F)(F)F` [Tolrestat], the cell viability falls from 90.8% to 63.3%.

`CCC(=O)N1CCN(c2ccc(-n3c(=O)ccc4cnc5ccc(-c6cnc7ccccc7c6)cc5c43)cc2C(F)(F)F)CC1` [Torin1] gave a cell viability of 70%.

Same assay, conditions: 1000 nM; 72 h

Going from `O[C@H]1[C@H]2[C@H](O)CCCN2C[C@H]1O` [Swainsonine] to `Cc1cn([C@H]2C[C@H](O)[C@@H](COP(=O)(O)OP(=O)(O)O)O2)c(=O)[nH]c1=O` [Thymidine diphosphate], the cell viability rises from 87.7% to 105%.

Compared with `Cc1coc2c1C(=O)C(=O)c1c-2ccc2c1CCCC2(C)C` [Tanshinone IIA], `CC[C@@]1(O)C(=O)OCc2c1cc1n(c2=O)Cc2cc3c(CN(C)C)c(O)ccc3nc2-1` [Topotecan] is lower in cell viability: 101% for the first, 2.79% for the second.

Going from `CN(C)c1cc(NC(=O)CNC(C)(C)C)c(O)c2c1C[C@H]1C[C@H]3[C@H](N(C)C)C(=O)C(C(N)=O)C(=O)[C@@]3(O)C(=O)C1C2=O` (stereo partly drawn) [Tigecycline] to `COc1ccc2c(C(=S)N(C)CC(=O)O)cccc2c1C(F)(F)F` [Tolrestat], the cell viability rises from 96% to 105%.

In the case of `CCC(=O)N1CCN(c2ccc(-n3c(=O)ccc4cnc5ccc(-c6cnc7ccccc7c6)cc5c43)cc2C(F)(F)F)CC1` [Torin1], the cell viability was 16.2%.

Same assay, conditions: 10000 nM; 72 h

First: O[C@H]1[C@H]2[C@H](O)CCCN2C[C@H]1O [Swainsonine]
Second: Cc1cn([C@H]2C[C@H](O)[C@@H](COP(=O)(O)OP(=O)(O)O)O2)c(=O)[nH]c1=O [Thymidine diphosphate]
The cell viability of the first is lower: 85.6% for the first, 103% for the second.

First: Cc1coc2c1C(=O)C(=O)c1c-2ccc2c1CCCC2(C)C [Tanshinone IIA]
Second: CC[C@@]1(O)C(=O)OCc2c1cc1n(c2=O)Cc2cc3c(CN(C)C)c(O)ccc3nc2-1 [Topotecan]
The cell viability of the first is higher: 89.6% for the first, 0.537% for the second.

First: CN(C)c1cc(NC(=O)CNC(C)(C)C)c(O)c2c1C[C@H]1C[C@H]3[C@H](N(C)C)C(=O)C(C(N)=O)C(=O)[C@@]3(O)C(=O)C1C2=O (stereo partly drawn) [Tigecycline]
Second: COc1ccc2c(C(=S)N(C)CC(=O)O)cccc2c1C(F)(F)F [Tolrestat]
The cell viability of the first is higher: 88.9% for the first, 88.5% for the second.

For `CCC(=O)N1CCN(c2ccc(-n3c(=O)ccc4cnc5ccc(-c6cnc7ccccc7c6)cc5c43)cc2C(F)(F)F)CC1` [Torin1], the cell viability was 12.9%.

Tested on: KCL-22
Test: as above
Conditions: 1 nM; 72 h
Procedure, shortened: as §1

First: O[C@H]1[C@H]2[C@H](O)CCCN2C[C@H]1O [Swainsonine]
Second: Cc1cn([C@H]2C[C@H](O)[C@@H](COP(=O)(O)OP(=O)(O)O)O2)c(=O)[nH]c1=O [Thymidine diphosphate]
The cell viability of the first is lower: 88.9% for the first, 111% for the second.

Going from `Cc1coc2c1C(=O)C(=O)c1c-2ccc2c1CCCC2(C)C` [Tanshinone IIA] to `CN(C)c1cc(NC(=O)CNC(C)(C)C)c(O)c2c1C[C@H]1C[C@H]3[C@H](N(C)C)C(=O)C(C(N)=O)C(=O)[C@@]3(O)C(=O)C1C2=O` (stereo partly drawn) [Tigecycline], the cell viability falls from 114% to 108%.
